Source: US12564554B2, “Co-amorphous forms of beta-lactoglobulin and a drug substance” (DISPERSOME IP APS, priority 2019, dated 2026)

Assay: mDSC measurement of the glass transition temperature (Tg)
Assay type: physicochemical
Conditions: freshly prepared, ball milled (Table 2)
Procedure: The mDSC thermograms of the samples were collected using a Discovery DSC (TA instruments, New Castle, USA) under a nitrogen gas flow of 50 ml/min. The samples containing Compound A, Compound B and IND were analysed at a heating rate of 2° C./min from 25° C. to 200° C., with an underlying modulation temperature amplitude of 0.2120° C. and a period of 40 s. For the remaining samples the same heating rate, amplitude and period were applied. Samples containing compounds APA, BDQ, RIF and VNX were heated from 25° C. to 250° C., and samples containing Compound RIT were heated from 0° C. to 170° C. A total of 4-8 mg sample powder was filled into aluminium Tzero pans and sealed with an aluminium Tzero lid. The glass transition temperature (Tg) was determined as the midpoint from the reversing heat flow signal.

Q: With “bedaquiline fumarate [Pure amorphous BDQ]” as the molecule, how does the Tg read?
A: 79.4 °C

Q: With `CO[C@H]1/C=C/O[C@@]2(C)Oc3c(C)c(O)c4c(O)c(c5c(nc6cc(C)ccn65)c4c3C2=O)NC(=O)/C(C)=C\C=C\[C@H](C)[C@H](O)[C@@H](C)[C@@H](O)[C@@H](C)[C@H](OC(C)=O)[C@@H]1C` [Pure amorphous RIF, rifaximin] as the molecule, how does the Tg read?
A: 194.4 °C

Q: Which Tg does the source give for `CNC(=O)c1ccc(N2C(=S)N(c3cnc(C#N)c(C(F)(F)F)c3)C(=O)C23CCC3)cc1F` [Pure amorphous APA, Apalutamide] here?
A: 97.4 °C

Q: Which Tg does the source give for `CC(C)c1nc(CN(C)C(=O)N[C@H](C(=O)N[C@@H](Cc2ccccc2)C[C@H](O)[C@H](Cc2ccccc2)NC(=O)OCc2cncs2)C(C)C)cs1` [Pure amorphous RIT, ritonavir] here?
A: 41.7 °C
